# According to patent publication US10905683B2, “Compositions and uses of amidine derivatives” (BIOCRYST PHARMACEUTICALS, INC., priority 2014, dated 2021):
# Where two headings read alike, the source gives them in different places.
# Tests used:
# [1] = pKa by UV-metric and potentiometric titration; assay type: physicochemical
# Description: The pKa experiments have been performed by both UV-metric (in aqueous) and potentiometric method (in methanol cosolvents). Nine titrations have been performed for the compound, all from low to high pH (2.0-12.0).
# [2] = Aqueous solubility assay in buffer and simulated gastric/intestinal fluids
# Description: The target concentration in each solution was 100 μM. […] The aqueous solutions were added (1 mL) to the dried samples and mixed at 400 rpm at 37° C. on an orbital plate shaker. […] Samples were prepared in triplicate. Testosterone and verapamil were used as reference compounds.
# [3] = pH-solubility curve in citrate-phosphate buffers; assay type: physicochemical; details: free base, FIG. 1
# Description: A pH-solubility curve was generated for the compound of Example 1 in citrate-phosphate buffers to evaluate the effect of pH on solubility of the free base material.
# [4] = Solubility in organic solvents; assay type: physicochemical
# Description: The solubility of the compound of Example 1 in a range of organic solvents was measured. Solubility assays were performed by the sequential addition of the compound of Example 1 to an appropriate organic solvent while stirring vigorously until a precipitate is formed. The resulting suspension is then shaken for 24 hours at room temperature, filtered and the resulting solution was analyzed by appropriate analytical method. Quantitation was performed by comparison of the concentrations of the resulting solution of the compound of Example 1 to a single point calibration curve using a solution of the reference standard.
# [5] = Further solubility studies in solvents, mixtures and surfactants; assay type: physicochemical; details: thermodynamic from solid
# Description: The solubility of the compound of Example 1 in a range of organic solvents, mixtures thereof, and some including surfactants, was measured. […] solubility assays were performed by the sequential addition of the compound of Example 1 to an appropriate organic solvent while stirring vigorously until a precipitate is formed. The resulting suspension is then shaken for 24 hours at room temperature, filtered and the resulting solution was analyzed by appropriate analytical method. Quantitation was performed by comparison of the concentrations of the resulting solution of the compound 1 to a single point calibration curve using a solution of the reference standard. The results are shown in Table 8, in which all percentages are expressed by weight of the total weight of excipients, i.e. excluding the active and the following abbreviations are used: […]
# [6] = Stability and photostability of formulations
# Description: This is a standard practice in the pharmaceutical industry in order to accelerate any chemical reactions that may occur due to environmental conditions (temperature, oxygen, light). […] If the stability data from the stress studies indicates a potential stability challenge, then further studies are required to identify the stability issue and resolve it.
# Initial stability studies were conducted under accelerated conditions. […] Several antioxidants were identified for study. These antioxidants are pharmaceutically acceptable for use in human oral dosage forms and are compatible with the gelatin composition in a soft gelatin capsule.
# Stability studies were performed with formulations that were protected from light and formulations exposed to light.
# [7] = Phase 1 safety and tolerability; assay type: in vivo, human; details: healthy subjects
# Description: A two-part, Phase 1, double-blind, placebo-controlled study of the compound of Example 1 was conducted in healthy subjects. Part 1 of the study assessed the safety, tolerability and the pharmacokinetic (PK) and pharmacodynamic (PD) properties of the compound of Example 1 following a single ascending dose. Subjects were enrolled in five sequential cohorts and received the compound of Example 1 (50 mg, 125 mg, 250 mg, 500 mg or 1000 mg; n=6/cohort) or placebo (n=2/cohort) under fasting conditions. To enable a food-effect assessment on exposure, subjects enrolled in Cohort 4 (500 mg or placebo) subsequently received a second dose of the compound of Example 1 following a high-fat breakfast.
# Part 2 of the study evaluated the safety, tolerability, PK, and PD of multiple ascending doses of the compound of Example 1. Twelve subjects were administered a 7-day course of the compound of Example 1 (n=10 subjects/cohort received the API and n=2 subjects/cohort received matching placebo) according to the following dose regimens: 100 mg of the compound of Example 1 or placebo every 8 hours (q8h) in Cohort 1; 200 mg of the compound of Example 1 or placebo q8h in Cohort 2; 400 mg of the compound of Example 1 or placebo q8h in Cohort 3 and 800 mg of the compound of Example 1 or placebo q8h in Cohort 4.
smiles,measurement,setting,value
"C=Cc1cc(C(=O)Nc2ccc(C(=N)N)cc2)c(-c2ccc(C(=O)NCC3CC3)nc2C(=O)O)cc1OC [Example 1, 3-[2-(4-carbamimidoyl-phenylcarbamoyl)-5-methoxy-4-vinyl-phenyl]-6-(cyclopropylmethyl-carbamoyl)-pyridine-2-carboxylic acid]",pKa,"[1]; aqueous (UV-metric), methanol cosolvents (potentiometric), no higher pKa observed by potentiometric method, read-out: higher pKa as reported",> 11
same,pKa,"[1]; aqueous (UV-metric), methanol cosolvents (potentiometric), no lower pKa observed by potentiometric method, read-out: lower pKa as reported",< 3
same,pKa,"[1]; aqueous, UV-metric method, aqueous, read-out: lower pKa",2.31 ± 0.15
same,solubility at 24 h,"[2]; 37 °C, fassgf or other biorelevant, thermodynamic from solid, Observed Solubility, Target 100 μM, Fasted-State SGF, 24 hours",109 µM
same,solubility at 24 h,"[2]; 37 °C, fassgf or other biorelevant, thermodynamic from solid, Observed Solubility, Target 100 μM, Fed-State SGF, 24 hours",99 µM
same,solubility at 24 h,"[2]; 37 °C, fassif, thermodynamic from solid, Observed Solubility, Target 100 μM, Fasted-State SIF, 24 hours",111 µM
same,solubility at 24 h,"[2]; 37 °C, fessif, thermodynamic from solid, Observed Solubility, Target 100 μM, Fed-State SIF, 24 hours",119 µM
same,solubility at 24 h,"[2]; 37 °C, pH 7.4, aqueous buffer, thermodynamic from solid, Observed Solubility, Target 100 μM, 0.1M phosphate buffer pH 7.4, 37° C., 24 hours",118 µM
same,solubility at 24 h,"[2]; solubility, aqueous/physiological fluids",0.1 mg/mL
same,effect of pH on aqueous solubility,[3],not a significant effect
same,Saturated concentration of Example 1,"[4]; Dimethyl acetamide, 40% solvent in water",12.9 mg/mL
same,Saturated concentration of Example 1,"[4]; Dimethyl acetamide, 60% solvent in water",24.8 mg/mL
same,Saturated concentration of Example 1,"[4]; Ethanol, 40% solvent in water",5.9 mg/mL
same,Saturated concentration of Example 1,"[4]; Ethanol, 60% solvent in water",21.8 mg/mL
same,Saturated concentration of Example 1,"[4]; Ethanol, 100%",23.9 mg/mL
same,Saturated concentration of Example 1,"[4]; Glycerol, 100%",5.5 mg/mL
same,Saturated concentration of Example 1,"[4]; N-Methyl-2-pyrrolidone, 100%, not saturated",>11 (not saturated) mg/mL
same,Saturated concentration of Example 1,"[4]; Polyethylene glycol 400, 40% solvent in water",11.9 mg/mL
same,Saturated concentration of Example 1,"[4]; Polyethylene glycol 400, 60% solvent in water",18.6 mg/mL
same,Saturated concentration of Example 1,"[4]; Polyethylene glycol 400, 100%",21.2 mg/mL
same,Saturated concentration of Example 1,"[4]; Propylene glycol, 40% solvent in water",2.67 mg/mL
same,Saturated concentration of Example 1,"[4]; Propylene glycol, 60% solvent in water",27.9 mg/mL
same,Saturated concentration of Example 1,"[4]; Propylene glycol, 100%",>55 mg/mL
same,solubility at 24 h,"[5]; 2.5% SLS in 97.5% PEG400, organic solvent or mixture, 2.5% SLS in 97.5% PEG400, read-out: Example 1 Solubility After 24 hrs",31.3 mg/mL
same,solubility at 24 h,"[5]; 2.5% SLS in 97.5% PEG600, organic solvent or mixture, 2.5% SLS in 97.5% PEG600, read-out: Example 1 Solubility After 24 hrs",25.9 mg/mL
same,solubility at 24 h,"[5]; 2.5% SLS in 97.5% PG, organic solvent or mixture, 2.5% SLS in 97.5% PG, read-out: Example 1 Solubility After 24 hrs",> 100 mg/mL
same,solubility at 24 h,"[5]; 2.5% SLS/8% EtOH/10% PG in 79.5% PEG600, organic solvent or mixture, 2.5% SLS/8% EtOH/10% PG in 79.5% PEG600, read-out: Example 1 Solubility After 24 hrs",57.3 mg/mL
same,solubility at 24 h,"[5]; 6% EtOH/15% glycerin/79% water containing 0.3% Tween80, aqueous with cosolvent or surfactant or cyclodextrin, 6% EtOH/15% glycerin/79% water containing 0.3% Tween80, read-out: Example 1 Solubility After 24 hrs",0.3 mg/mL
same,solubility at 24 h,"[5]; 6% EtOH/15% glycerin/79% water, aqueous with cosolvent or surfactant or cyclodextrin, 6% EtOH/15% glycerin/79% water, read-out: Example 1 Solubility After 24 hrs",0.07 mg/mL
same,solubility at 24 h,"[5]; 8% EtOH/10% PG in 82% PEG600, organic solvent or mixture, 8% EtOH/10% PG in 82% PEG600, read-out: Example 1 Solubility After 24 hrs",61 mg/mL
same,solubility at 24 h,"[5]; 10% EtOH in 90% PEG400, organic solvent or mixture, 10% EtOH in 90% PEG400, read-out: Example 1 Solubility After 24 hrs",61.4 mg/mL
same,solubility at 24 h,"[5]; 10% EtOH in 90% PEG600, organic solvent or mixture, 10% EtOH in 90% PEG600, read-out: Example 1 Solubility After 24 hrs",61.4 mg/mL
same,solubility at 24 h,"[5]; 10% EtOH with 90% PG, organic solvent or mixture, 10% EtOH with 90% PG, read-out: Example 1 Solubility After 24 hrs",> 100 mg/mL
same,solubility at 24 h,"[5]; 20% PG in 80% PEG400, organic solvent or mixture, 20% PG in 80% PEG400, read-out: Example 1 Solubility After 24 hrs",52.9 mg/mL
same,solubility at 24 h,"[5]; 20% PG in 80% PEG600, organic solvent or mixture, 20% PG in 80% PEG600, read-out: Example 1 Solubility After 24 hrs",52.4 mg/mL
same,solubility at 24 h,"[5]; PG/PEG mixtures, organic solvent or mixture, some PG/PEG mixtures, read-out: solubility",50 to 60 mg/mL
same,solubility at 24 h,"[5]; mixtures of 90% or more propylene glycol, organic solvent or mixture, some mixtures composed of 90% or more propylene glycol, read-out: solubility",> 100 mg/mL
same,solubility at 24 h,"[5]; propylene glycol, organic solvent or mixture, Propylene Glycol, read-out: Example 1 Solubility After 24 hrs",> 150 mg/mL
same,solubility at 24 h,"[5]; propylene glycol, organic solvent or mixture, propylene glycol (PG), read-out: solubility",150 mg/mL
same,chemical stability under accelerated conditions,"[6]; combined with candidate formulations, exposed to light, oxygen and elevated temperatures",underwent degradation
same,photostability,[6]; exposed to ultraviolet (UV) or white (CW) light,demonstrated photodegradation
same,safety and tolerability,"[7]; Part 1 (50-1000 mg single) and Part 2 (100-800 mg q8h, 7 days)",generally safe and well tolerated
same,dose-limiting adverse events,[7]; Part 1 and Part 2,no dose-limiting adverse events
same,serious adverse events,[7]; Part 1 and Part 2,no serious adverse events
